Converted amounts (≈) assume the structure as drawn. Each block holds one compound with its values, some of them ahead of it.
Columns and labels:
[1] = Solubility of compound in pH 4 0.1 M acetate buffer using crystalline form of sample; format: physicochemical
[2] = Solubility of compound in pH 7.4 PBS buffer using crystalline form of sample; format: physicochemical
[3] = Intrinsic clearance in human cryopreserved hepatocytes assessed per million cells […]; format: ADME, cell-based, Hepatocyte; details: read-out: CLH
[4] = Solubility of compound in phosphate buffer at pH 7.4 using dried form of sample; format: physicochemical; details: phosphate buffer, read-out: solubility
[5] = Half-life in mouse at 5.2 umol/kg, iv formulated as solution; format: ADME, organism-based; details: in vivo, dose 5.2 µmol/kg
[6] = Half-life in Han Wistar rat at […], iv formulated as solution; format: ADME, organism-based; details: in vivo, dose 1.3 µmol/kg
[7] = Volume of distribution at steady state in Beagle dog at 5.2 umol/kg, iv administered as 0.25 hrs infusion; format: ADME, organism-based, Canis lupus familiaris; details: in vivo, dose 5.2 µmol/kg, read-out: Vdss
[8] = Clearance in Han Wistar rat plasma at […], iv formulated as solution; format: ADME, organism-based; details: dose 1.3 µmol/kg
[9] = Clearance in mouse plasma at 5.2 umol/kg, iv formulated as solution; format: ADME, organism-based; details: dose 5.2 µmol/kg
[10] = Intrinsic clearance in dog cryopreserved hepatocytes assessed per million cells […]; format: ADME, cell-based, Canis lupus familiaris, Hepatocyte; details: read-out: CLH
[11] = Intrinsic clearance in rat cryopreserved hepatocytes assessed per million cells […]; format: ADME, cell-based, Hepatocyte; details: cryopreserved hepatocytes, read-out: CLH
[12] = Intrinsic clearance in human liver microsome; format: ADME, microsomes; details: liver microsomes, read-out: CLH
[13] = Half-life in Beagle dog at 5.2 umol/kg, iv administered as 0.25 hrs infusion; format: ADME, organism-based, Canis lupus familiaris; details: in vivo, dose 5.2 µmol/kg
[14] = Volume of distribution at steady state in mouse at 5.2 umol/kg, iv formulated as solution; format: ADME, organism-based; details: in vivo, dose 5.2 µmol/kg, read-out: Vdss
[15] = Volume of distribution at steady state in Han Wistar rat at […], iv formulated as solution; format: ADME, organism-based; details: in vivo, dose 1.3 µmol/kg, read-out: Vdss
[16] = Intrinsic clearance in mouse cryopreserved hepatocytes assessed per million cells […]; format: ADME, cell-based, Hepatocyte; details: read-out: CLH
[17] = Lipophilicity, log D of compound in buffer/octanol at pH 7.4 by shake flask method; format: physicochemical
[18] = Clearance in Beagle dog plasma at 5.2 umol/kg, iv administered as 0.25 hrs infusion; format: ADME, organism-based, Canis lupus familiaris; details: dose 5.2 µmol/kg
[19] = Drug level in human liver microsomes treated with (1S,3R)-3-Acetamido-N-(5-chloro-4-(4,5,6,7-tetrahydropyrazolo-[1,5-a]pyridin-3-yl)pyridin-2-yl)cyclohexanecarboxamide at 10 uM measured after 1 hr in presence of NADPH by LC-UV-MS analysis; format: ADME, Microsome
[20] = Drug level in human hepatocytes treated with (1S,3R)-3-Acetamido-N-(5-chloro-4-(4,5,6,7-tetrahydropyrazolo-[1,5-a]pyridin-3-yl)pyridin-2-yl)cyclohexanecarboxamide; format: ADME, cell-based, Hepatocyte
[21] = target: Cyclin-dependent kinase 9 (Homo sapiens, UniProt P50750); assay: Inhibition of CDK9 in human MCF7 cells assessed as reduction in RNA Polymerase 2 CTD phosphorylation at Ser2 residues measured after 6 hrs by immunofluorescence assay; format: cell-based
Chain of Cyclin-dependent kinase 9 (P50750 whole entry): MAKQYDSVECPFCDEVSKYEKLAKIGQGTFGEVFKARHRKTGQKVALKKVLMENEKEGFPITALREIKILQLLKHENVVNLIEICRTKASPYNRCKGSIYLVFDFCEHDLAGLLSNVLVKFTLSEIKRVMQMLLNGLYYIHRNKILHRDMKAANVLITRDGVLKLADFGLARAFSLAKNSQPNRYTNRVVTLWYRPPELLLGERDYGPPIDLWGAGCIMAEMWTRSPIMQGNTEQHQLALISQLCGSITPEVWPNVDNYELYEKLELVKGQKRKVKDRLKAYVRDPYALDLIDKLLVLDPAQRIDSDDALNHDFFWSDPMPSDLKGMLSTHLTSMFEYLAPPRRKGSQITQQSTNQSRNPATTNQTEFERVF

- solubility thermodynamic [1]: 24 µM (≈ 9.25 µg/mL)
- solubility thermodynamic [2]: 7.5 µM (≈ 2.89 µg/mL)
- hepatocyte CLint [3]: 1.4 µL/min/1e6 cells
- solubility [4]: 33 µM (≈ 12.7 µg/mL)
- half-life [5]: 15.6 min
- half-life [6]: 13.2 min
- Vd [7]: 0.62 L/kg
- clearance [8]: 77 mL/min/kg
- clearance [9]: 40 mL/min/kg
- hepatocyte CLint [10]: 5.9 µL/min/1e6 cells
- hepatocyte CLint [11]: 58 µL/min/1e6 cells
- microsomal CLint [12]: 12 µL/min/mg
- half-life [13]: 60 min
- Vd [14]: 1.1 L/kg
- Vd [15]: 1.3 L/kg
- hepatocyte CLint [16]: 52 µL/min/1e6 cells
- logD [17]: 3
- clearance [18]: 7.5 mL/min/kg
Compound: COc1cc(F)ccc1-c1ccnc(NC(=O)[C@H]2CCC[C@@H](NC(C)=O)C2)c1

- Drug uptake [19]: Active
- Drug uptake [20]: Active
- hepatocyte CLint [3]: 33 µL/min/1e6 cells
- microsomal CLint [12]: 18 µL/min/mg
- IC50 [21]: 720 nM
Compound: CC(=O)N[C@@H]1CCC[C@H](C(=O)Nc2cc(-c3cnn4c3CCCC4O)c(Cl)cn2)C1 (stereo not given in full)

- Drug uptake [19]: Active
- Drug uptake [20]: Active
Compound: CC(=O)N[C@@H]1CCC[C@H](C(=O)Nc2cc(-c3cn[nH]c3CCCC(=O)O)c(Cl)cn2)C1

- Drug uptake [19]: Active
- Drug uptake [20]: Active
- hepatocyte CLint [3]: 2.9 µL/min/1e6 cells
- microsomal CLint [12]: 15 µL/min/mg
- IC50 [21]: > 2000 nM
Compound: CC(=O)N[C@@H]1CCC[C@H](C(=O)Nc2cc(-c3cn[nH]c3CCCCO)c(Cl)cn2)C1

— ChEMBL document CHEMBL4673352, “Discovery of AZD4573, a Potent and Selective Inhibitor of CDK9 That Enables Short Duration of Target Engagement for the Treatment of Hematological Malignancies” (J Med Chem, 2020)
